ChEMBL document CHEMBL1142396, “Structure-activity relationships among the nitrogen containing bisphosphonates in clinical use and other analogues: time-dependent inhibition of human farnesyl pyrophosphate synthase” (J Med Chem, 2008)
Activity calls are given as the source filed them. The rule behind the calls is not given here.

Legend:
[1] = species: Rattus norvegicus; assay: Inhibition of bone resorption in rat assessed as phosphate; type: functional
[2] = molecular target: T1, Farnesyl pyrophosphate synthase (Homo sapiens, UniProt P14324)
T1 sequence (P14324 whole entry): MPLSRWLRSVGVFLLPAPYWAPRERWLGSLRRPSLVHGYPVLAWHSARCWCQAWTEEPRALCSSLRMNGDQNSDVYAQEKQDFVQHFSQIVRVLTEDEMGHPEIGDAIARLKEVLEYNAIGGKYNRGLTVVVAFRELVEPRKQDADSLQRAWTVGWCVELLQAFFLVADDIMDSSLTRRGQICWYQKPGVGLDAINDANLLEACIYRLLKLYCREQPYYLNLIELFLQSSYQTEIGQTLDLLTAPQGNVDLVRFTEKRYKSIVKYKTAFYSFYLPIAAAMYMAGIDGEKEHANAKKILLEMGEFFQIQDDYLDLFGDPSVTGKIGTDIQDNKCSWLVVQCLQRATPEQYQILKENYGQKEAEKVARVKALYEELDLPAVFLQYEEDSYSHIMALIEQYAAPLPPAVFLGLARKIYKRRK

[3] = molecular target: T1, Farnesyl pyrophosphate synthase; remark: listed apart in the source

Row | SMILES | LED [1] [µg/kg] | IC50 [2] [µM] | Ki [2] [µM] | IC50 [3] [µM] | Ki [3] [µM] | Activity [1]
1 | CCCCCN(C)CCC(O)(P(=O)(O)O)P(=O)(O)O [IBANDRONIC ACID] | 0.1 |  |  |  |  | 
2 | O=P(O)(O)C(O)(Cc1ccccc1)P(=O)(O)O | 100 |  |  |  |  | 
3 | C[n+]1cccc(CC(O)(P(=O)(O)O)P(=O)(O)O)c1 | 0.1 | 1.71 | 0.177 | 0.0196 | 0.0039 | 
4 | O=P(O)(O)CCc1cccnc1 |  |  |  | 824 | 128 | 
5 | CC1CCCN=C1NC(P(=O)(O)O)P(=O)(O)O (stereo not given) | 0.3 | 0.541 | 0.0863 | 0.0103 | 0.001 | 
6 | O=P(O)(O)C(O)(CCc1cccnc1)P(=O)(O)O | 1000 |  |  |  |  | 
7 | NCCCCCC(O)(P(=O)(O)O)P(=O)(O)O [NERIDRONIC ACID] | 10 |  |  |  |  | 
8 | O.O=P(O)(O)C(O)(Cn1ccnc1)P(=O)(O)O [ZOLEDRONIC ACID] | 0.1 |  |  |  |  | 
9 | NCCC(O)(P(=O)(O)O)P(=O)(O)O [PAMIDRONIC ACID] | 30 |  |  |  |  | 
10 | Cc1cccnc1NC(P(C)(=O)O)P(=O)(O)O (stereo not given) | 1000 | 1.89 | 0.32 | 0.0614 | 0.0116 | 
11 | O=P(O)(O)C(O)(Cc1ccccn1)P(=O)(O)O | 1 | 0.349 | 0.0593 | 0.0092 | 0.00074 | 
12 | O=P(O)(O)C(O)(Cc1cccnc1)P(=O)(O)O [RISEDRONIC ACID] | 0.3 |  |  |  |  | 
13 | O=P(O)(O)C(Nc1ccccn1)P(=O)(O)O | 10 |  |  |  |  | 
14 | Cc1cccnc1NC(P(C)(=O)O)P(C)(=O)O (stereo not given) |  | > 10000 | > 4000 | 330 | 93 | inactive
15 | Nc1ccccc1CC(O)(P(=O)(O)O)P(=O)(O)O | 1 | 0.371 | 0.0646 | 0.0216 | 0.0034 | 
16 | Cc1cccnc1NCC(P(=O)(O)O)P(=O)(O)O | 1000 | 0.989 | 0.155 | 0.734 | 0.196 | 
17 | O=P(O)(O)C(NC1CCCCC1)P(=O)(O)O [(CYCLOHEXYLAMINO)METHYLENEDIPHOSPHONIC ACID] | 1 |  |  |  |  | 
18 | O=C(O)C(O)(Cc1cccnc1)P(=O)(O)O (stereo not given) | 300 | 467 | 97.5 |  | 61 | 
19 | O=P(O)(O)C(CC1CCCCN1)P(=O)(O)O (stereo not given) |  | 0.869 | 0.112 | 0.0238 | 0.00328 | 
20 | O=P(O)(O)OP(=O)(O)O [PYROPHOSPHORIC ACID] |  | 243 | 40.5 | 181 | 29.8 | 
21 | O=P(O)(O)C(CNc1ccccn1)P(=O)(O)O | 10 |  |  |  |  | 
22 | NCCCCC(O)(P(=O)(O)O)P(=O)(O)O |  | 1.08 | 0.194 | 0.298 | 0.0482 | 
23 | O=P(O)(O)C(Cc1ccccn1)P(=O)(O)O [PIRIDRONIC ACID] | 10 | 0.259 | 0.039 | 0.0304 | 0.00445 | 
24 | O=P(O)(O)C(O)(CC1CCCCN1)P(=O)(O)O (stereo not given) | 1 | 0.592 | 0.137 | 0.0137 | 0.0016 | 
25 | Cc1cccnc1NC(P(=O)(O)O)P(=O)(O)O | 1 |  |  |  |  | 
26 | O=P(O)(O)C(Cc1cccnc1)P(=O)(O)O | 10 | 0.173 | 0.0348 | 0.0326 | 0.0074 | 
27 | NCCCC(O)(P(=O)(O)O)P(=O)(O)O [ALENDRONIC ACID] | 1 |  |  |  |  | 
